Patent US8435978B2, “Substituted sulfonamide compounds” (Gruenenthal GmbH, priority 2006, dated 2013)
Counter-ions that a name gives are not always drawn.

What was measured:
B1R receptor of the rat = biological target: T1, B1R receptor of the rat (Rattus norvegicus, UniProt P97583); experiment: Functional study on the bradykinin receptor 1 (B1R), FLIPR Ca2+ assay, rB1R cells; assay type: cell-based; details: CHO-K1, test substance 10 μM, agonist Des-Arg9-bradykinin 100 nM, % inhibition compared with the maximum achievable inhibition, read-out: B1R Antagonism, rat [10 μM] % Inhibition
T1 construct: host or cells: CHO K1 cells (Chinese hamster ovary), stably transfected
T1 sequence (P97583 1-337): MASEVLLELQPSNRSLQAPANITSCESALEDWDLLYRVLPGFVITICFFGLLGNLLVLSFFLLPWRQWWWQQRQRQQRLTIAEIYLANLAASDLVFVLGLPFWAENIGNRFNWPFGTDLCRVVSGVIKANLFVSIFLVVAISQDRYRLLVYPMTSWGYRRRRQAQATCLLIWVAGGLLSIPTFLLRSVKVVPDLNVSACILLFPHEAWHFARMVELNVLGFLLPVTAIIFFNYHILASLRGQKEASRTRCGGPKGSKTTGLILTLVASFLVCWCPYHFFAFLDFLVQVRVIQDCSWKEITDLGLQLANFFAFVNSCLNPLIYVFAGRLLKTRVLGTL
In short: (§1)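 Cells were dye-loaded 60 min at 37 °C, equilibrated 20 min at room temperature, then given 10 μM compound. Ten minutes later the species-matched agonist was added (0.5 nM Lys-Des-Arg9-bradykinin, human; 100 nM Des-Arg9-bradykinin, rat) and Ca2+ influx suppression expressed as % of maximum inhibition.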

human B1R receptor = biological target: T2, human B1R receptor (Homo sapiens, UniProt P46663); experiment: Functional study on the bradykinin receptor 1 (B1R), FLIPR Ca2+ assay, hB1R cells; assay type: cell-based; details: CHO-K1, test substance 10 μM, agonist Lys-Des-Arg9-bradykinin 0.5 nM, % inhibition compared with the maximum achievable inhibition, read-out: B1R Antagonism, human [10 μM] % Inhibition
T2 construct: host or cells: CHO K1 cells (Chinese hamster ovary), stably transfected
T2 sequence (P46663 1-353): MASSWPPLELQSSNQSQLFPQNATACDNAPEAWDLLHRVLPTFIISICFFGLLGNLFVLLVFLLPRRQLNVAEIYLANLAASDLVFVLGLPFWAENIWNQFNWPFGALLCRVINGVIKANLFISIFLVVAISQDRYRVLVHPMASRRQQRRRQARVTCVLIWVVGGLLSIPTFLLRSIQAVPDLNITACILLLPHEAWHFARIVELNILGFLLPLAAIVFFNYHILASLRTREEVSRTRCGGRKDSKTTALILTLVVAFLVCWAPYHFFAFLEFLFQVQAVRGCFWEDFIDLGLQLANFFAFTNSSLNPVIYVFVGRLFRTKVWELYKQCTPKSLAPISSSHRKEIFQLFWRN
In short: as §1

inhibition at 10 µM (B1R receptor of the rat) [%] | inhibition at 10 µM (human B1R receptor) [%] | Compound
102 | 97.9 | CCN(Cc1ccncc1)C(=O)COCC1CCCCN1S(=O)(=O)c1c(Cl)cccc1Cl (stereo not shown) [Example 482, 2-((1-(2,6-dichlorophenylsulfonyl)piperidin-2-yl)methoxy)-N-ethyl-N-(pyridin-4-ylmethyl)acetamide]
99.8 | 104 | COc1cc(C)c(S(=O)(=O)N2c3ccccc3CCC2COCC(=O)N2CCN(C3CCN(C)CC3)CC2)c(C)c1 (stereo not shown) [Example 202, 2-((1-(4-methoxy-2,6-dimethylphenylsulfonyl)-1,2,3,4-tetrahydroquinolin-2-yl)methoxy)-1-(4-(1-methylpiperidin-4-yl)piperazin-1-yl)ethanone]
97.9 | 96.3 | COc1cc(C)c(S(=O)(=O)N2CCCC2COCC(=O)N2CCN(c3ccccc3OC)CC2)c(C)c1 (stereo not shown) [Example 491, 2-((1-(4-methoxy-2,6-dimethylphenylsulfonyl)pyrrolidin-2-yl)methoxy)-1-(4-(2-methoxyphenyl)piperazin-1-yl)ethanone]
103 | 106 | COc1cc(C)c(S(=O)(=O)N2CCCC2COCC(=O)NCc2ccc(CN3CCCC3)cc2)c(C)c1 (stereo not shown) [Example 299, 2-((1-(4-methoxy-2,6-dimethylphenylsulfonyl)pyrrolidin-2-yl)methoxy)-N-(4-(pyrrolidin-1-ylmethyl)benzyl)acetamide]
101 | 103 | COc1cc(C)c(S(=O)(=O)N2CCCCC2COCC(=O)N2CCN(Cc3cccc(C#N)c3)CC2)c(C)c1 (stereo not shown) [Example 92, 3-((4-(2-((1-(4-methoxy-2,6-dimethylphenylsulfonyl)piperidin-2-yl)methoxy)acetyl)-piperazin-1-yl)methyl)benzonitrile hydrochloride]
100 | 103 | COc1cc(C)c(S(=O)(=O)N2CCCCC2COCC(=O)NCc2cccc(N3CCN(C)CC3)c2)c(C)c1 (stereo not shown) [Example 433, 2-((1-(4-methoxy-2,6-dimethylphenylsulfonyl)piperidin-2-yl)methoxy)-N-(3-(4-methylpiperazin-1-yl)benzyl)acetamide]
103 | 101 | COc1cc(C)c(S(=O)(=O)N2CCCC2COCC(=O)N2CCN(Cc3ccc(Cl)c(Cl)c3)CC2)c(C)c1 (stereo not shown) [Example 349, 1-(4-(3,4-dichlorobenzyl)piperazin-1-yl)-2-((1-(4-methoxy-2,6-dimethylphenylsulfonyl)pyrrolidin-2-yl)methoxy)ethanone]
98.1 | 104 | COc1cc(C)c(S(=O)(=O)N2CCCC2COCC(=O)N2CCN(c3ccncc3)CC2)c(C)c1 (stereo not shown) [Example 274, 2-((1-(4-methoxy-2,6-dimethylphenylsulfonyl)pyrrolidin-2-yl)methoxy)-1-(4-(pyridin-4-yl)piperazin-1-yl)ethanone]
100 | 105 | COc1cc(C)c(S(=O)(=O)N2CCCCC2COCC(=O)N2CCC(c3nc(-c4ccncc4)no3)CC2)c(C)c1 (stereo not shown) [Example 103, 2-((1-(4-methoxy-2,6-dimethylphenylsulfonyl)piperidin-2-yl)methoxy)-1-(4-(3-(pyridin-4-yl)-1,2,4-oxadiazol-5-yl)piperidin-1-yl)ethanone]
93.1 | 102 | COc1cc(C)c(S(=O)(=O)N2Cc3ccccc3CC2COCC(=O)N2CCC(N3CCN(C)CC3)CC2)c(C)c1C (stereo not shown) [Example 275, 2-((2-(4-methoxy-2,3,6-trimethylphenylsulfonyl)-1,2,3,4-tetrahydroisoquinolin-3-yl)methoxy)-1-(4-(4-methylpiperazin-1-yl)piperidin-1-yl)ethanone]
99.7 | 103 | COc1cc(C)c(S(=O)(=O)N2CCCC2COCC(=O)N2CCC(N3CCCC3)CC2)c(C)c1 (stereo not shown) [Example 518, 2-((1-(4-methoxy-2,6-dimethylphenylsulfonyl)pyrrolidin-2-yl)methoxy)-1-(4-(pyrrolidin-1-yl)piperidin-1-yl)ethanone]
